Source: US20080248134A1, “Oral compositions, use and combinations of N-[2-(dimethylamino)ethyl]-2,6 dimethyl-1-oxo-1,2-dihydrobenzo[b]-1,6-naphthyridine-4-carboxamide and closely related analogues thereof” (Auckland Uniservices Limited, priority 2005, published 2008)

Tests used:
Lewis lung = assay: Murine Lewis lung tumour growth delay; type: in vivo; conditions: intraperitoneal dose of 8.9 mg/kg
Method: In addition, the compound of Formula II, by way of an intraperitoneal dose of 8.9 mg/kg, induced a growth delay of 8.5 days in a murine tumour (Lewis lung) that is also used extensively in drug development programmes.

[1] = Plasma and tissue pharmacokinetics; type: in vivo, mice
Method: Plasma and tissue pharmacokinetics of the compound of Formula II, were compared following intraperitoneal administration at a dose of 8.9 mg/kg body weight. Mice were terminally anaesthetised at various times up to 75 hours after drug administration and tissue and blood was taken for preparation of samples. Plasma and tissue concentrations of the compound of Formula II were measured by high performance liquid chromatography-mass spectrophometry. The results are shown in FIG. 8, the vertical bars showing the standard deviation of the mean values from three mice per time point. The concentration of drug in plasma is very low on this scale (<100 nmol/kg), implying a high ratio of the concentration of cell-associated drug to that of external drug
Plasma and tissue pharmacokinetics, were further investigated following intraperitoneal administration of the compound of Formula II at a dose of 8.9 mg/kg. Mice were terminally anaesthetised at various times up to 75 hours after drug administration and tissue and blood was taken for preparation of samples. Plasma and tissue concentrations of the compound of Formula II were measured by high performance liquid chromatography-mass spectrophometry. The results are shown in FIG. 9, the vertical bars showing the standard deviation of the mean values from three mice per time point. The concentration differential (ie the slope of each plot) indicates the half life of the compound of Formula II in each tissue type and plasma. The half life of the compound of Formula II in various tissue types including liver, kidney, brain, heart and plasma, calculated from points on the concentration time curve, is approximately three hours. The half life of the compound of Formula II in tumour tissue, calculated from points on the concentration time curve, is approximately 9 hours. This is approximately a three-fold increase in the concentration differential in tumour tissue to non-tumour tissue and plasma concentration of Formula II. This effectively leads to an accumulation of the compound of Formula II in tumour tissue relative to other tissue.
The plasma and tissue pharmacokinetics of a compound of Formula II, were also compared with several well known cancer therapies as shown in FIG. 10. The analytical methods used to obtain data for other therapies varies and was taken from the literature. The AUC (area under the concentration-time curve) values of the compound of Formula II show approximately a 6-7 fold increase in concentration of Formula II in tumour tissue over liver tissue. The AUC values in plasma are negligible. A longer half life (higher concentration differential) in a particular tissue, leads to a larger AUC value (area under the concentration versus time curve). The AUC values provide an indication of the amount of each compound accumulated in a particular tissue or plasma over time.
The ability of different anticancer drugs to be retained selectively in tumour tissue can also be conveniently compared as the ratio of AUC values for a normal tissue versus a tumour tissue. […] Cancer Chemother Pharmacol. 1996; 38: 417-24), amsacrine and asulacrine (Kestell P, Paxton J W, Evans P C, Young D, Jurlina J L, Robertson I G C, Baguley B C. Disposition of amsacrine and its analogue 9-((2-methoxy-4-[(methylsulfonyl)-amino]phenyl)amino)-N,5-dimethyl-4-acridinecarboxamide (CI-921) in plasma, liver, and Lewis lung tumors in mice. Cancer Res 1990; 50: 503-508) and DACA (Kestell P, Dunlop I, McCrystal M R, Evans B D, Paxton J W, Gamage R S K A, Baguley B C. Plasma pharmacokinetics of DACA (N-[2-(dimethylamino)-ethyl]-acridine-4-carboxamide) in a phase I trial. Cancer Chemother Pharmacol 1999; 44: 45-50). Similar analytical methods, employing high performance liquid chromatography, were used. […]

[2] = intraperitoneal 8.9 mg/kg, mice

## Cc1cccc2cc3c(=O)n(C)cc(C(=O)NCCN(C)C)c3nc12 [Formula II, N-[2-(dimethylamino)ethyl]-2,6 dimethyl-1-oxo-1,2-dihydrobenzo[b]-1,6-naphthyridine-4-carboxamide]
Lewis lung
  growth delay: 8.5 days
[1]; compared with doxorubicin, amsacrine, asulacrine and DACA
  ratio of AUC values (tumour/liver): clearly superior
[1]; [2]
  half life in liver, kidney, brain, heart and plasma: approximately three
  increase in the concentration differential in tumour tissue to non-tumour tissue and plasma: approximately three
[1]; intraperitoneal 8.9 mg/kg, mice, up to 75 hours
  concentration of drug in plasma: < 100 nmol/kg
[1]; mice
  AUC: increase in concentration in tumour tissue over liver tissue: 6-7 fold
[1]; mouse, ip, colon 38 tumour tissue, intraperitoneal 8.9 mg/kg, mice
  half-life: ~9 h
[1]; relative to tissue AUC, mice
  AUC values in plasma: negligible
